Measurements as given in patent publication US20110071199A1, “Thiophenyl Sulfonamides for the Treatment of Alzheimer's Disease” (Bristol-Myers Squibb Company, priority 2009, published 2011).
pIC50: −log10 of the molar value.

How the values were obtained:
[1] = system: Aβ formation in H4 APP751 SWE clone 8.20 cells (H4 neuroglioma cell line stably expressing the Swedish mutant of APP751); experiment: Inhibition of Aβ formation in cultured cells; type: cell-based; details: for pIC50: H4 APP751 SWE clone 8.20 cells, 19 hours incubation, Aβ40 or Aβ42 not specified
Protocol: Compounds were assayed for Aβ40 or Aβ42 inhibition in cells using H4 APP751 SWE clone 8.20, developed at Bristol-Myers Squibb, an H4 neuroglioma cell line stably expressing the Swedish mutant of APP751. Cells were maintained in log phase through twice weekly passage at a 1:20 dilution. For IC50 determinations, 30 μL cells (1.5×10^4 cells/well) in DMEM media containing 0.0125% BSA (Sigma A8412) were plated directly into 384-well compound plates (Costar 3709) containing 0.1 μL serially diluted compound in DMSO. Following incubation for 19 hours in 5% CO2 at 37° C., plates were briefly centrifuged (1000 rpm, 5 min). A 10 μL aliquot from each well was transferred to a second assay plate (Costar 3709) for Aβ40 measurements. Antibody cocktails were freshly prepared by dilution into 40 mM Tris-HCl (pH 7.4) with 0.2% BSA and added to assay plates. For Aβ42 measurements, antibodies specific for the Aβ42 neoepitope (565, developed at Bristol-Myers Squibb; conjugated to the Wallac reagent (Perkin Elmer)) and the N-terminal sequence of Aβ peptide (26D6, developed at SIBIA/Bristol-Myers Squibb; conjugated to APC (Perkin Elmer)) were mixed and 20 […] of the mixture was added to each well of the incubated cell plate yielding a final concentration of 0.8 ng/well 565 and 75 ng/well 26D6. For the Aβ40 measurements, antibodies specific for the Aβ40 neoepitope (TSD, developed at Bristol-Myers Squibb; conjugated to the Wallac reagent (Perkin Elmer)) and 26D6 as described above were mixed and 20 μL of the mixture was added to the 10 μL aliquots which had been removed previously from the cell plate yielding a final concentration of 1.6 ng/well TSD and 17.5 ng/well 26D6. Assay plates containing antibodies were sealed with aluminum foil and incubated overnight at 4° C. Signal was determined using a Viewlux counter (Perkin Elmer) and IC50 values determined using curve fitting in CurveMaster (Excel Fit based).

brain Aβ40 = experiment: Acute rat study, brain Abeta40 assay (252-TSD ELISA); type: in vivo; details: female Sprague-Dawley rats, single dose 10 mg/kg, oral gavage
Protocol: (§1) Aβ species from animals were measured using sandwich ELISA assays. A brief discussion of these assays is included here since the details of the epitopes for the individual antibodies determines the Aβ species that are detected. Mouse and rat Aβ share a common Aβ sequence that differs from human Aβ. As a result of these sequence differences, antibodies that recognize the N-terminal region of human Aβ, such as 26D6, bind weakly to rodent Aβ. Likewise, antibodies that bind tightly to rodent Aβ, such as 252, bind weakly to human Aβ. Two assays were developed for measuring rodent Aβ40: 252-TSD and 4G8-TSD. The TSD-4G8 assay can measure not only Aβ40, but other BACE-γ-secretase cleavage products (Aβ11-40) and α-secretase-γ-secretase cleavage products (P3).
(§2) Dosing solutions were made once at the start of the study. Heating at 56° C. and sonication were used to solubilize compound in the dosing solution. All procedures were done in concordance with ACUC guidelines. Terminal blood samples were obtained by cardiac puncture after CO2 euthanasia and collected in EDTA tubes. Plasma was obtained after centrifugation. […]
Rat brain (half a hemisphere) was homogenized using a polytron at 4 mL/g in PBS, pH 7.8, 2% CHAPS, complete protease inhibitors (Roche). […] The bound 252-HRP antibody was detected using Pierce Supersignal Pico Chemiluminescent substrate for 10 minutes and quantified a Packard TopCount. […]

plasma Aβ40 = experiment: Acute rat study, plasma Abeta40 assay (4G8-TSD ELISA); type: in vivo; details: female Sprague-Dawley rats, single dose 10 mg/kg, oral gavage
Protocol: as §1, §2
Plates were coated with TSD antibody and washed as for the brain Aβ40 assay. […] Samples were detected using 4G8-biotin (Signet) diluted 1:8000 in PBS, 0.05% Tween, 0.1% BSA for 1 hour. […] Detection and quantification were as for brain Aβ40 assays. […]

NC(=O)[C@@H](CC1CC1)N(Cc1ccc(Br)c(F)c1)S(=O)(=O)c1ccc(Cl)s1 [Example 3, (R)-2-(N-(4-bromo-3-fluorobenzyl)-5-chlorothiophene-2-sulfonamido)-3-cyclopropylpropanamide]
pIC50 [1]: 9.12

NC(=O)[C@@H](CC1CC1)N(Cc1ccc(-c2ncon2)cc1)S(=O)(=O)c1ccc(Cl)s1 [Example 5, (R)-2-(N-(4-(1,2,4-oxadiazol-3-yl)benzyl)-5-chlorothiophene-2-sulfonamido)-3-cyclopropylpropanamide]
pIC50 [1]: 9.29

NC(=O)[C@@H](CCC(F)(F)F)N(Cc1ccc(-c2ncco2)cc1F)S(=O)(=O)c1ccc(Cl)s1 [Example 9, (R)-2-(5-chloro-N-(2-fluoro-4-(oxazol-2-yl)benzyl)thiophene-2-sulfonamido)-5,5,5-trifluoropentanamide]
pIC50 [1]: 9.21

NC(=O)[C@@H](CCC(F)(F)F)N(Cc1ccc(-c2ncon2)cc1F)S(=O)(=O)c1ccc(Cl)s1 [Example 7, (R)-2-(5-chloro-N-(2-fluoro-4-(1,2,4-oxadiazol-3-yl)benzyl)thiophene-2-sulfonamido)-5,5,5-trifluoropentanamide]
brain Aβ40, level as % of vehicle control (brain Aβ40): 41 % of vehicle control | plasma Aβ40, level as % of vehicle control (plasma Aβ40): 47 % of vehicle control | pIC50 [1]: 9.54 | Aβ40 versus Aβ42 inhibition in cultured cells ([1]; cultured cells): similarly inhibited

NC(=O)[C@@H](CCC(F)(F)F)N(Cc1ccc(Br)c(F)c1)S(=O)(=O)c1ccc(Cl)s1 [Example 12, (R)-2-(N-(4-bromo-3-fluorobenzyl)-5-chlorothiophene-2-sulfonamido)-5,5,5-trifluoropentanamide]
pIC50 [1]: 8.53

NC(=O)[C@@H](CCC(F)(F)F)N(Cc1ccc(Br)cc1F)S(=O)(=O)c1ccc(Cl)s1 [Example 11, (R)-2-(N-(4-bromo-2-fluorobenzyl)-5-chlorothiophene-2-sulfonamido)-5,5,5-trifluoropentanamide]
pIC50 [1]: 8.97

NC(=O)[C@@H](CCC(F)(F)F)N(Cc1ccc(Br)cc1)S(=O)(=O)c1ccc(Cl)s1 [Example 10, (R)-2-(N-(4-bromobenzyl)-5-chlorothiophene-2-sulfonamido)-5,5,5-trifluoropentanamnide]
pIC50 [1]: 8.60

NC(=O)[C@@H](CC1CC1)N(Cc1ccc(Br)cc1F)S(=O)(=O)c1ccc(Cl)s1 [Example 2, (R)-2-(N-(4-bromo-2-fluorobenzyl)-5-chlorothiophene-2-sulfonamido)-3-cyclopropylpropanamide]
pIC50 [1]: 9.28

NC(=O)[C@@H](CC1CC1)N(Cc1cc(F)c(Cl)cc1F)S(=O)(=O)c1ccc(Cl)s1 [Example 6, (R)-2-(5-chloro-N-(4-chloro-2,5-difluorobenzyl)thiaphene-2-sulfonamido)-3-cyclopropylpropanamide]
pIC50 [1]: 8.83

NC(=O)[C@@H](CC1CC1)N(Cc1ccc(Br)cc1)S(=O)(=O)c1ccc(Cl)s1 [Example 1, (R)-2-(N-(4-bromobenzyl)-5-chlorothiophene-2-sulfonamido)-3-cyclopropylpropanamide]
pIC50 [1]: 9.00

NC(=O)[C@@H](CC1CC1)N(Cc1cc(F)c(Br)cc1F)S(=O)(=O)c1ccc(Cl)s1 [Example 4, (R)-2-(N-(4-bromo-2,5-difluorobenzyl)-5-chlorothiophene-2-sulfonamido)-3-cyclopropylpropanamide]
pIC50 [1]: 9.09
